Measured values from patent US6913877B1 (priority 2000, dated 2005).
Entries after “also recorded” stand apart in the source; their conditions may differ. Counter-ions that a name gives are not always drawn. No end group written: not given here.

Columns and labels:
chromatophores [1] = system: chromatophores
[2] = system: chromatophore/protozoal cell; assay type: cell-based
erythrophores = assay type: cell-based
[3] = system: Betta splendens erythrophores; assay type: cell-based
[4] = system: chromatophore/neuronal cell; assay type: cell-based
[5] = system: chromatophore/bacterial cell; assay type: cell-based
chromatophores [6] = experiment: cells; details: read-out: Threshold concentration PPM
chromatophores [7] = assay type: cell-based
melanophores = assay type: cell-based
iridophores = assay type: cell-based
[8] = system: chromatophore/fungal cell; assay type: cell-based
[9] = system: Betta splendens chromatophores; assay type: cell-based
[10] = system: Hemichromis bimaculatus chromatophores; assay type: cell-based
Betta chromatophores = assay type: cell-based

For `Cc1ccc(N(CC2=NCCN2)c2cccc(O)c2)cc1` [Phentolamine], the “Chromatophore response (cell spans the chromatophore columns, cell type not assigned)” value (chromatophores [1]) was “Blocks norepinephrine” and the “Threshold concentration PPB” value (chromatophores [1]) was “XX (key: X=1 to 100 PPB; XX=100 to 1000 PPB)”.

For `CCN(CC)CCCC(C)Nc1ccnc2cc(Cl)ccc12` (stereo not drawn) [Chloroquine], the “Chromatophore response 2-Cell Cytosensor (second cell type included)” value (“Chromatophore response 2-Cell Cytosensor” for short) [2] was “Normal”.

With `c1ccc2c(CC3=NCCN3)cccc2c1` [Naphazoline] the “Chromatophore response Erythrophores” value (erythrophores) was “Aggr”.

`C[C@H](CCC(=O)O)C[C@H](C)C[C@H](C)C(=O)/C=C(\O)[C@H](C)C[C@H](C)C/C=C/[C@@H](C)[C@@H](O)[C@@H](C)[C@@H](O)C[C@@H]1CC[C@@](C)([C@H]2CC[C@@](C)([C@@H](C)O)O2)O1` [Ionomycin] was tested, and the erythrophore pigment response [3] was “slight, but sustained aggregation”.

For `C=C(C=O)C[C@@H]1C[C@H](O)[C@]2(C)O[C@@H]3C[C@@H]4O[C@@H]5C[C@]6(C)O[C@]7(C)CC[C@@H]8O[C@@H]9C[C@]%10(C)O[C@@H]%11C(C)=CC(=O)O[C@H]%11C[C@H]%10O[C@H]9C[C@@H](C)[C@H]8O[C@H]7C[C@H]6O[C@H]5C/C=C\[C@H]4O[C@H]3C[C@H]2O1` [Brevetoxin], the “Chromatophore response (cell spans the chromatophore columns, cell type not assigned)” value (chromatophores [1]) was “Aggr”.

In the case of `c1ccc2cc3c(ccc4ccccc43)cc2c1` [1,2-Benzanthracene], the “Chromatophore response (cell spans the chromatophore columns, cell type not assigned)” value (chromatophores [1]) is reported as “Imp”.

`[Cu]` [Cu] was tested, and the “Chromatophore response (cell spans the chromatophore columns, cell type not assigned)” value (chromatophores [1]) was “Imp. (FS)”.

For `C[N+](C)(C)CCOC(N)=O` [Carbachol], the “Chromatophore response 2-Cell Cytosensor” value [4] was “Erythr. Aggr”.

For `CCOP(=O)(OCC)Oc1ccc([N+](=O)[O-])cc1` [Paraoxon], the “Threshold concentration PPM” value (chromatophores [1]) was “XX (key: X=1 to 100 PPM; XX=100 to 1000 PPM)”.

With `O=C(O)c1ccccc1O` [Salicylate] the “Chromatophore response (cell spans the chromatophore columns, cell type not assigned)” value (chromatophores [1]) was “Imp. (FS)”.

In the case of `CCn1cc(C(=O)O)c(=O)c2ccc(C)nc21` [Nalidixic acid], the “Chromatophore response 2-Cell Cytosensor” value [5] is reported as “Normal”.

`CC(=O)OCOC(=O)CN(CC(=O)OCOC(C)=O)c1ccccc1OCCOc1ccccc1N(CC(=O)OCOC(C)=O)CC(=O)OCOC(C)=O` [BAPTA/AM] was tested, and the erythrophore pigment response [3] was “pigment dispersion”.

For `CCCCCCC(C)(C)c1ccc([C@@H]2C[C@H](O)CC[C@H]2CCCO)c(O)c1` [Cannabinoid CP-55940, CP-55940], the “Response time Hr.” value (chromatophores [1]) was “X (key: X=1-6 hr; XX=6-24 hr)” and the minimal effective concentration (chromatophores [6]) was 100 to 1000 µg/mL.

`CC(COc1ccccc1)N(CCCl)Cc1ccccc1` (stereo not drawn) [Phenoxybenzamine, Phenoxy-benzamine] was tested, and the “Chromatophore response (cell spans the chromatophore columns, cell type not assigned)” value (chromatophores [1]) was “Blocks norepinephrine” and the “Threshold concentration PPB” value (chromatophores [1]) was “X (key: X=1 to 100 PPB; XX=100 to 1000 PPB)”.

`Cc1ncc([N+](=O)[O-])n1CCO` [Metronidazole] was tested, and the “Chromatophore response 2-Cell Cytosensor” value [2] was “Normal”.

`C=C[C@H]1C[N@@]2CC[C@H]1C[C@H]2[C@H](O)c1ccnc2ccc(OC)cc12` [Quinine sulfate] was tested, and the “Chromatophore response 2-Cell Cytosensor” value [2] was “Normal”.

`CN(C)[C@@H]1C(O)=C(C(N)=O)C(=O)[C@@]2(O)C(O)=C3C(=O)c4c(O)cccc4[C@@](C)(O)[C@H]3C[C@@H]12` [Tetrasycline] was tested, and the “Response time Hr.” value (chromatophores [1]) was “XX (key: X=1-6 hr; XX=6-24 hr)”, the “Threshold concentration PPM” value (chromatophores [1]) was “X (key: X=1 to 100 PPM; XX=100 to 1000 PPM)” and the “Chromatophore response 2-Cell Cytosensor” value [5] was “Normal”.

With `N` [Ammonium] the “Chromatophore response (cell spans the chromatophore columns, cell type not assigned)” value (chromatophores [1]) was “Imp. (FS)”.

MSH was tested, and the “Threshold concentration PPB” value (chromatophores [1]) was “X (key: X=1 to 100 PPB; XX=100 to 1000 PPB)”, the “concentration at which chromatophores respond” value (chromatophores [7]) was 0.001 µM and the “Chromatophore response Melanophores” value (melanophores) was “Disp”. The “Chromatophore response Iridophores” value (iridophores) was “Hue changes (isolated”.

In the case of Latrotoxin, the “Chromatophore response Erythrophores” value (erythrophores) is reported as “Aggr” and the “Chromatophore response 2-Cell Cytosensor” value [4] is reported as “Aggr”.

In the case of `COc1ccc(CCN(C)CCCC(C#N)(c2ccc(OC)c(OC)c2)C(C)C)cc1OC` (stereo not drawn) [Verapamil], the erythrophore pigment response [3] is reported as “rapid dispersion; also recorded: disperse almost as completely as possible; also recorded: pigment dispersion; also recorded: larger dispersion”.

Mevinphos was tested, and the “Chromatophore response Erythrophores” value (erythrophores) was “Imp. (FS)”, the “Threshold concentration PPT” value (chromatophores [1]) was “X (key: X=1 PPT or higher)” and the “Chromatophore response Melanophores” value (melanophores) was “Imp”. The “Chromatophore response Iridophores” value (iridophores) was “Hue change, then Imp”.

In the case of `COP(=O)(OC)OC=C(Cl)Cl` [Dichlorvos], the “Threshold concentration PPT” value (chromatophores [1]) is reported as “X (key: X=1 PPT or higher)”.

In the case of `O=S(=O)(F)Cc1ccccc1` [PMSF], the “Chromatophore response Melanophores” value (melanophores) is reported as “Imp”.

`COC(=O)[C@@H]1[C@H]2C[C@H]3c4[nH]c5ccccc5c4CCN3C[C@@H]2CC[C@@H]1O` [Yohimbine] was tested, and the “Chromatophore response (cell spans the chromatophore columns, cell type not assigned)” value (chromatophores [1]) was “Blocks norepinephrine” and the “Threshold concentration PPB” value (chromatophores [1]) was “X (key: X=1 to 100 PPB; XX=100 to 1000 PPB)”.

In the case of Penicillin, the “Chromatophore response 2-Cell Cytosensor” value [5] is reported as “Normal”.

With `COC(=O)C1=C(C)NC(C)=C([N+](=O)[O-])C1c1ccccc1C(F)(F)F` (stereo not drawn) [Bay K8644] the “erythrophore pigment response to direct application” value [3] was “neither the aggregation nor dispersion of erythrophore pigment”.

`C[C@@H]1[C@H](O)[C@@H](C)/C=C/C=C/C=C/C=C/C=C/C=C/C=C/[C@H](O[C@@H]2O[C@H](C)[C@@H](O)[C@H](N)[C@@H]2O)C[C@@H]2O[C@](O)(C[C@@H](O)C[C@@H](O)[C@H](O)CC[C@@H](O)C[C@@H](O)CC(=O)O[C@H]1C)C[C@H](O)[C@H]2C(=O)O` [Amphotericin B] was tested, and the “Chromatophore response 2-Cell Cytosensor” value [8] was “Normal”.

For `Clc1cccc(Cl)c1N=C1NCCN1` [Clonidine], the “Chromatophore response Erythrophores” value (erythrophores) was “Aggr”.

For `[Ag]` [Ag], the “Chromatophore response (cell spans the chromatophore columns, cell type not assigned)” value (chromatophores [1]) was “Imp. (FS)”.

In the case of `c1ccc2c(c1)CCCC2C1=NCCN1` (stereo not drawn) [Tetrahydrozoline], the “Chromatophore response Erythrophores” value (erythrophores) is reported as “Aggr”.

For Cholera toxin, the “lowest concentration at which inhibition of norepinephrine induced pigment aggregation is detected” value [9] was 1 ng/m, the “Threshold concentration PPB” value (chromatophores [1]) was “X (key: X=1 to 100 PPB; XX=100 to 1000 PPB)” and the “color class of chromatophores with selective sensitivity” value (chromatophores [7]) was “erythrophores”. The “change of appearance / color of chromatophores” value [10] was “change the appearance”, the “erythrophore response upon challenge by norepinephrine” value [10] was “impaired” and the chromatophore pigment response (Betta chromatophores) was “Pigment aggregation is evident”. The “effect of pre-incubation on norepinephrine-induced pigment aggregation” value (Betta chromatophores) was “impaired pigment aggregation in response to NE”.

For melanophore concentrating hormone [MCH], the “Chromatophore response (cell spans the chromatophore columns, cell type not assigned)” value (chromatophores [1]) was “Aggr” and the “Threshold concentration PPB” value (chromatophores [1]) was “X (key: X=1 to 100 PPB; XX=100 to 1000 PPB)”.

In the case of `Nc1ncnc2c1ncn2[C@@H]1O[C@H](COP(=O)(O)OP(=O)(O)OP(=O)(O)O)[C@@H](O)[C@H]1O` [ATP], the “Chromatophore response 2-Cell Cytosensor” value [4] is reported as “Erythr. Aggr”.

For `C[C@]12CCC(=O)C=C1CC[C@@H]1[C@@H]2[C@@H](O)C[C@@]2(C)[C@H]1CC[C@]2(O)C(=O)CO` [Hydrocortisone], the minimal effective concentration (chromatophores [6]) was 1 to 100 µg/mL and the “Chromatophore response Melanophores” value (melanophores) was “Hyp.D”.

For `NC[C@H](O)c1ccc(O)c(O)c1` [Norepinephrine], the “Chromatophore response Erythrophores” value (erythrophores) was “Aggr”, the “Threshold concentration PPB” value (chromatophores [1]) was “X (key: X=1 to 100 PPB; XX=100 to 1000 PPB)” and the “change of appearance / color of chromatophores” value [10] was “change the appearance”. The chromatophore pigment response (Betta chromatophores) was “aggregation of chromatophore pigment is apparent”.

`C=C[C@@]1(C)CC(=O)[C@]2(O)[C@@]3(C)[C@@H](O)CCC(C)(C)[C@@H]3[C@H](O)[C@H](OC(C)=O)[C@@]2(C)O1` [Forskolin] was tested, and the “concentration at which chromatophores respond” value (chromatophores [7]) was 10000 µM.

In the case of `C=CC[C@@H](CC/C(C)=C/C=C/CC/C=C\[C@@H]1CSC([C@@H]2C[C@@H]2C)=N1)OC` [Curacin A], the “Chromatophore response (cell spans the chromatophore columns, cell type not assigned)” value (chromatophores [1]) is reported as “Aggr. and Imp. (FS)”.

For `COP(=O)(OC)C(O)C(Cl)(Cl)Cl` (stereo not drawn) [Trichlorfon], the “Threshold concentration PPT” value (chromatophores [1]) was “X (key: X=1 PPT or higher)”.

With `Cc1cc(C(C)(C)C)c(O)c(C)c1CC1=NCCN1` [Oxymetazoline] the “Chromatophore response Erythrophores” value (erythrophores) was “Aggr”.

In the case of `[H]/N=C(/N)N[C@H]1[C@H](O)[C@@H](O)[C@H](O[C@@H]2O[C@@H](C)[C@](O)(C=O)[C@H]2O[C@@H]2O[C@@H](CO)[C@H](O)[C@@H](O)[C@@H]2NC)[C@@H](N/C(N)=N\[H])[C@@H]1O` [Streptomycin], the “Chromatophore response 2-Cell Cytosensor” value [5] is reported as “Normal”.

In the case of “Substance P (RPKPQQFFGLM; ends and bridges not checked; UniProt P20366 58-68, looked up)”, the “Chromatophore response Iridophores” value (iridophores) is reported as “Hue changes (FS)”.

With `NCCc1c[nH]c2ccc(O)cc12` [Serotonin] the “Chromatophore response Melanophores” value (melanophores) was “Partial”.

`[Pb]` [Pb] was tested, and the “Chromatophore response (cell spans the chromatophore columns, cell type not assigned)” value (chromatophores [1]) was “Imp. (FS)”.

With `[Ni]` [Ni] the “Chromatophore response (cell spans the chromatophore columns, cell type not assigned)” value (chromatophores [1]) was “Imp. (FS)”.

`c1cc2c3c(cccc3c1)CC2` [Acenapthene] was tested, and the “Chromatophore response (cell spans the chromatophore columns, cell type not assigned)” value (chromatophores [1]) was “Imp”.

`Cn1c(=O)c2c(ncn2C)n(C)c1=O` [Caffeine] was tested, and the “concentration at which chromatophores respond” value (chromatophores [7]) was 100 µM.

`OO` [Hydrogen peroxide] was tested, and the “Chromatophore response (cell spans the chromatophore columns, cell type not assigned)” value (chromatophores [1]) was “Imp. (FS)”.
